Some test systems named below: MOLT-4 leukemia; NCI-H23 lung; SK-OV-3 ovarian; OVCAR-3 ovarian; SW-620 colon; HT29 colon; RPMI-8226 leukemia; OVCAR-4 ovarian; SF-539 CNS; UACC-62 melanoma; NCI-H522 lung; NCI-H226 lung; HOP-62 NSCLC; UO-31 renal; ACHN renal; PC-3 prostate; NCI/ADR-RES ovarian; MDA-N.
What all share (assay): inhibition of tumour cell growth, NCI panel, 48 h

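Tested at 5 concentrations; 48 h exposure; 96-well plates; endpoints linearly interpolated, else capped at highest concentration. TGI: total growth inhibition.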

`O=C1CCCCCC1CC(Sc1ccccc1)Sc1ccccc1` (stereo not drawn): the TGI with MOLT-4 leukemia was 47.3 µM; in the assay on NCI-H23 lung, above 100 µM; in the assay on SK-OV-3 ovarian, above 100 µM; in the assay on OVCAR-3 ovarian, above 100 µM; in the assay with SW-620 colon, above 100 µM; with HT29 colon, above 100 µM. Also, the TGI in the assay with RPMI-8226 leukemia, with OVCAR-4 ovarian, in the assay on SF-539 CNS, in the assay on UACC-62 melanoma, in the assay on NCI-H522 lung and in the assay on NCI-H226 lung was above 100 µM throughout. For the same molecule, the TGI with HOP-62 NSCLC, in the assay on UO-31 renal, in the assay on ACHN renal, with PC-3 prostate, in the assay with NCI/ADR-RES ovarian and in the assay with MDA-N was above 100 µM throughout.

`CNC(=O)CNC(=O)C(Cc1ccc(NC(=O)CCCCC(C)=O)cc1)NC(=O)C(CCC(=O)OCc1ccccc1)NC(=O)OC(C)(C)C` (stereo not drawn): the TGI in the assay with MOLT-4 leukemia, in the assay with NCI-H23 lung, with SK-OV-3 ovarian, with OVCAR-3 ovarian, with SW-620 colon and in the assay on HT29 colon was above 100 µM throughout. The TGI with RPMI-8226 leukemia, in the assay on OVCAR-4 ovarian, in the assay on SF-539 CNS, in the assay with UACC-62 melanoma, in the assay on NCI-H522 lung and in the assay on NCI-H226 lung was above 100 µM in each case. Moreover, the TGI with HOP-62 NSCLC, in the assay with UO-31 renal, in the assay on ACHN renal, with PC-3 prostate, with NCI/ADR-RES ovarian and in the assay with MDA-N was above 100 µM throughout.

Consider `COc1cc2c(c(OC)c1OC)C(=O)[C@H](Br)[C@H]2NC(=O)NCCCl`, for which the TGI in the assay on MOLT-4 leukemia, in the assay with NCI-H23 lung, in the assay on SK-OV-3 ovarian, in the assay with OVCAR-3 ovarian, in the assay on SW-620 colon and in the assay with HT29 colon was above 100 µM throughout. The TGI with RPMI-8226 leukemia, with OVCAR-4 ovarian, in the assay with SF-539 CNS, in the assay on UACC-62 melanoma, in the assay with NCI-H522 lung and with NCI-H226 lung was above 100 µM throughout. Besides, the TGI with HOP-62 NSCLC, in the assay on UO-31 renal, in the assay on ACHN renal, in the assay on PC-3 prostate, with NCI/ADR-RES ovarian and in the assay with MDA-N was above 100 µM each time.

On to `Cc1ccc(CC(Cc2ccc(C)cc2C(=O)O)C(=O)O)cc1` (stereo not drawn), for which the TGI in the assay on MOLT-4 leukemia, with NCI-H23 lung, in the assay on SK-OV-3 ovarian, in the assay with OVCAR-3 ovarian, in the assay on SW-620 colon and in the assay on HT29 colon was above 100 µM each time. In addition, the TGI in the assay on RPMI-8226 leukemia, in the assay on OVCAR-4 ovarian, in the assay with SF-539 CNS, with UACC-62 melanoma, with NCI-H522 lung and with NCI-H226 lung was above 100 µM each time. In addition, the TGI in the assay with HOP-62 NSCLC, in the assay on UO-31 renal, in the assay on ACHN renal, in the assay on PC-3 prostate, in the assay on NCI/ADR-RES ovarian and in the assay on MDA-N was above 100 µM throughout.

On to `CC1(C)CCCOc2cccc(c2)OCCCC(C)(C)C1=O`, for which the TGI is 37.1 µM in the assay with MOLT-4 leukemia; above 100 µM with NCI-H23 lung; above 100 µM with SK-OV-3 ovarian; 69.1 µM in the assay with OVCAR-3 ovarian; above 100 µM with SW-620 colon; 43.2 µM with HT29 colon. Besides, the TGI in the assay with RPMI-8226 leukemia was above 100 µM; in the assay on OVCAR-4 ovarian it was above 100 µM; with SF-539 CNS, above 100 µM; in the assay on UACC-62 melanoma, 73.6 µM; with NCI-H522 lung, 67.3 µM; in the assay with NCI-H226 lung, 82.9 µM. The TGI in the assay on HOP-62 NSCLC, in the assay on UO-31 renal, with ACHN renal, in the assay with PC-3 prostate, in the assay on NCI/ADR-RES ovarian and in the assay with MDA-N was above 100 µM in each case.

As to `Cc1cc(=O)oc2c3c(ccc12)OC(c1ccc(Br)cc1)CC3=O` (stereo not drawn), the TGI with MOLT-4 leukemia stood at 4.91 µM; with NCI-H23 lung it was 27.5 µM; in the assay on SK-OV-3 ovarian, 30.3 µM; in the assay on OVCAR-3 ovarian, 24.3 µM; with SW-620 colon it was 23.9 µM; in the assay on HT29 colon, 32 µM. Besides, the TGI is above 100 µM in the assay on RPMI-8226 leukemia; above 100 µM in the assay with OVCAR-4 ovarian; 27.1 µM in the assay with SF-539 CNS; 23.7 µM in the assay on UACC-62 melanoma; 18 µM with NCI-H522 lung; 38.2 µM with NCI-H226 lung. Also, the TGI was 21.8 µM with HOP-62 NSCLC; 21.9 µM in the assay with UO-31 renal; 29.4 µM with ACHN renal; 47.9 µM in the assay with PC-3 prostate; above 100 µM in the assay on NCI/ADR-RES ovarian; above 100 µM with MDA-N.

The values above are taken from PubChem BioAssay (NCI).
